Data set [1] in a line: Piperlongumine microsomal protein binding (ultrafiltration). The data set is classed as in vitro ADME. As to conditions: human, pooled human liver microsomes; PPL 127.70 μM; read-out: fumic (free fraction of the compound in the microsomal incubation). The method, then: Piperlongumine-protein binding. An in vitro study with a microsomal and plasma protein was carried out using a concentration of PPL approximately corresponding to its S50 (n = 3). The plasma protein binding was evaluated to predict the in vivo clearance, using a plasma protein concentration of 42 mg/mL. The samples were incubated with pooled human liver microsomes at 37 °C as described in section above. The same V0 conditions obtained (protein concentration and incubation time) were applied in this study, but in the absence of the cofactor NADPH. Furthermore, a control sample without protein was analyzed simultaneously for comparison purposes. These mixtures were added to the centrifugal filter device (Microcon YM-30, 30,000 molecular weight cut-off; Millipore Corporation, Bedford, MA, USA) and centrifuged at 21800 x g for 30 min at 37 °C (Hitachi CF16RXII, Himac, Tokyo, Japan). The ultra-filtrate was directly assayed by high-performance liquid chromatography at the conditions previously described.

Data set [2] concerns recombinant human CYP (rhCYP) isoforms. Briefly: P450 reaction phenotyping by rhCYP isoforms. The data set is classed as in vitro ADME. As to conditions: specific inhibitors in pooled HLM and recombinant CYP450 isoforms. The method, then: The capacity of selected major human P450 isoforms to metabolize PPL was screened using human recombinant isoenzymes. Briefly, PPL (S50 concentration) was added into a 200 μL incubation mixture containing P450 isoform (50 pmol/mL for CYP3A4, CYP1A2, CYP2C9, 2B6, 2D6 and 2C19; 25 pmol/mL for CYP2C8 and […]; final concentrations), NADPH regeneration system solution A (1.3 mM NADP^+ and 3.3 mM glucose-6-phosphate), NADPH regeneration system solution B (0.4 U/mL glucose-6-phosphate dehydrogenase), potassium phosphate buffer pH 7.4 (100 mM), except for CYP2C9 where the phosphate buffer was substituted by tris buffer pH 7.5 (100 mM), maintaining for 50 min in shaking water bath. In order to enhance the sensibility one sample was pooled from 4 single reactions. PPL metabolites were analyzed by a GC-MS as described previously. The MS peak areas of PPL metabolites were recorded to determine the contributions of the P450 enzymes.
Phenotyping study at 50 min. In order to evaluate the CYP isoforms involved in M4 formation, a similar study as described in the main text was performed, except by the time of incubation of 50 min (Fig. S13).

Data set [3] can be described thus: Piperlongumine stability assay (microsomal medium). The data set is classed as physicochemical. The method, then: Method validation protocol and results. The quantification method of PPL was validated by following the European Medicines Agency (EMA) guidelines. Analytical curves were obtained by spiking 200 µL aliquots of HLM with PPL 0.38; 0.95; 9.45; 141.80; 236.34 and 283.61 µM. The linearity was carried out and assessed in triplicate. The linearity was determined using the correlation coefficient (r), the F test for lack-of-fit and a p value of 0.05. The MINITAB Release version 14.1 software (State College, PA, USA) was used to conduct the statistical analysis (Table S1). Carbamazepine (2120 µM) was used as internal standard, and the ratio of the peak area of the PPL and carbamazepine was defined as the analytical response. The lower limit of quantification (LLQ) was obtained by spiking the incubation mixture samples at a concentration of 0.38 µM. The selectivity of the method was assured by analyzing the standard solutions of reagents and the blank HLM (Fig. S1). The absolute recovery (%) was performed at three different concentrations: 0.95, 141.8, 212.7 µM. The recovery was expressed as the percentage of the extracted amount, by comparing the areas from the samples subjected to the extraction procedure with the areas from the analysis of standard solutions of the same concentration that were not submitted to the extraction process. To assess the within-day precision and accuracy, replicate analyzes (n = 5) of 200 µL of microsomal medium spiked at concentrations 0.38, 0.95; 141.8 and 236.3 µM was analyzed in a single day. For between-day assays, samples at the same concentration described above were analyzed for three consecutive days (n = 5) (Table S2). These samples were quantified using a new calibration curve prepared daily. The stability assays were performed to evaluate the PPL stability at three different conditions: (i) at room temperature (25 °C ± 2 °C, for 4 h), (ii) at incubation conditions (37 °C, for 60 min) and (iv) in the autosampler equipment (25 °C ± 2 °C, for 24 h). These assays aimed to evaluate the stability of PPL during sample preparation, during the metabolism reaction and during the analysis, respectively. […] The peak area obtained from the stability assays was quantified using a fresh analytical curve prepared daily. The samples were considered stable when the relative error (RE, %) from the nominal concentration was within ±15% and when the relative standard deviation (RSD%) was below 15% (Table S3).

Turning to `COc1cc(/C=C/C(=O)N2CCC=CC2=O)cc(OC)c1OC` [PPL, Piperlongumine], the fraction unbound at 127.7 μM in data set [1] came to 0.76. The “main CYP isoenzymes involved in PPL metabolism” value in data set [2] was “CYP1A2 and CYP3A4”. Further, the “stability, RE (%) from nominal concentration” value in data set [3] (37°C (1h), PPL 0.95 µM) is 0.6%; in data set [3] (37°C (1h), PPL 212.7 µM), 0.0%; in data set [3] (Auto injector (24 hs), PPL 0.95 µM), -4.0%; in data set [3] (Auto injector (24 hs), PPL 212.7 µM), 0.0%; in data set [3] (Room temperature (4 hs), PPL 0.95 µM) it was 0.6%; in data set [3] (Room temperature (4 hs), PPL 212.7 µM), 6.0%.

(Values after publication PMC5041077, “Metabolic profile and safety of piperlongumine” (Scientific Reports, 2016).)
